From ChEMBL document CHEMBL1201862, “PubChem BioAssay data set” (2004)
Activity calls are given as the source filed them.

Key:
[1] = target: T1, High affinity choline transporter 1 (Homo sapiens, UniProt Q9GZV3); assay: human choline transporter potentiators, potency – cell-based, 10-point CRC, membrane potential dye, dose response (AID 602376); format: functional
T1 sequence (Q9GZV3 whole entry): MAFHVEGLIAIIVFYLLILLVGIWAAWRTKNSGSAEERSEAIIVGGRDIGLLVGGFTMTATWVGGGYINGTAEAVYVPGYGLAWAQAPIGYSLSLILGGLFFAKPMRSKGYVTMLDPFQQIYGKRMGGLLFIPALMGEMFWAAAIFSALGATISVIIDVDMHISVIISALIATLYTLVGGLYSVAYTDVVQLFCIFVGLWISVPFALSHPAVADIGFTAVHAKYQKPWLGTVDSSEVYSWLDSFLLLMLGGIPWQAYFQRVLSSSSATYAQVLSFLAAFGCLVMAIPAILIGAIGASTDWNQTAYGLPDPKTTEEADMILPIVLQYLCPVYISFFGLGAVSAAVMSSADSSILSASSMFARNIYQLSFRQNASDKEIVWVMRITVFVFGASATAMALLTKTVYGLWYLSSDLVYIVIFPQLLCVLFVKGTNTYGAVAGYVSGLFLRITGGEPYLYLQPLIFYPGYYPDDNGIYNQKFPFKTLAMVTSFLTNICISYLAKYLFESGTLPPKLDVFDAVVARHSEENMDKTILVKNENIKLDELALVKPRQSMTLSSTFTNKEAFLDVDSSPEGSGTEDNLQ

[2] = A cell-based HTS for delayed death inhibitors of the malarial parasite plastid Measured in Microorganism System Using Plate Reader - 2126-01_Inhibitor_Dose_DryPowder_Activity.; format: functional, organism-based
[3] = A cell-based HTS for delayed death inhibitors of the malarial parasite plastid Measured in Microorganism System Using Plate Reader - 2126-02_Inhibitor_Dose_DryPowder_Activity.; format: functional, organism-based
[4] = (§1) Counterscreen for antagonists of the orexin 1 receptor (OX1R; HCRTR1): Fluorescence-based cell-based high throughput dose response assay to identify antagonists of the parental CHO cell line. [Related pubchem assays (depositor defined):AID434989, AID435008, AID463079, AID485270, AID492963, AID492964, AID492965, AID493232, AID504699, AID504701]; format: functional
[5] = target: T2, Sentrin-specific protease 7 (Homo sapiens, UniProt Q9BQF6); format: functional;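 also: Luminescence-based dose-response confirmation of ultra-high-throughput screening hits, measuring inhibition of SENP7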
T2 sequence (Q9BQF6 whole entry): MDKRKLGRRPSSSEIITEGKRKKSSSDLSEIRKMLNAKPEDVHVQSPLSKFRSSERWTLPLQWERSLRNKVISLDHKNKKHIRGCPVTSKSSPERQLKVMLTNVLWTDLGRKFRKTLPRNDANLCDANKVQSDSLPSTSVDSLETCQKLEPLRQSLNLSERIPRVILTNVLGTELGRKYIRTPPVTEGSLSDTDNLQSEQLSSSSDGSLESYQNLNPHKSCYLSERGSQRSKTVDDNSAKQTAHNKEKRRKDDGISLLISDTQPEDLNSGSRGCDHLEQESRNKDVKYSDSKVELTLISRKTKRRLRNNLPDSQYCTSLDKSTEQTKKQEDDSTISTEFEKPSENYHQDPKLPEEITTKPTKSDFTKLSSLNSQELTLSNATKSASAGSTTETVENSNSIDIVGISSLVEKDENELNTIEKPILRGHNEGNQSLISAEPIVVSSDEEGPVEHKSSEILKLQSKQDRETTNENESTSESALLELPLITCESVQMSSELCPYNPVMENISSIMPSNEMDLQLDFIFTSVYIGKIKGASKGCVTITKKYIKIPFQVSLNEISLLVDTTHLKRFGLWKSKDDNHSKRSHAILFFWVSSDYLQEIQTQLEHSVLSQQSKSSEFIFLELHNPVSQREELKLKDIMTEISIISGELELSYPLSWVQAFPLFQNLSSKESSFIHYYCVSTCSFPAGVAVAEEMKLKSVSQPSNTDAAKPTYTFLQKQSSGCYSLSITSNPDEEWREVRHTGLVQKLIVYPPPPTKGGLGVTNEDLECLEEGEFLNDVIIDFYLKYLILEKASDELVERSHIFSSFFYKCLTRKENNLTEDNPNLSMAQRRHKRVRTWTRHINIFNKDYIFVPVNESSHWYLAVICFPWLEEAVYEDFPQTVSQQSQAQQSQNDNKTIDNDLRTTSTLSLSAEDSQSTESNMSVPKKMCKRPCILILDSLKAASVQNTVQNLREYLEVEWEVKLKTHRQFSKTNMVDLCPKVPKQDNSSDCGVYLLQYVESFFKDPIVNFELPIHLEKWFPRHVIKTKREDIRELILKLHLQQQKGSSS

[6] = target: T3, Orexin/Hypocretin receptor type 1 (Homo sapiens, UniProt O43613); assay: (§2) Fluorescence-based cell-based high throughput dose response assay for antagonists of the orexin 1 receptor (OX1R; HCRTR1). [Related pubchem assays (depositor defined):AID434989, AID435008, AID463079, AID485270, AID492963, AID492964, AID492965, AID493232, AID504717, AID504718]; format: functional
Caspase-3 = target: T4, Caspase-3 (Homo sapiens, UniProt P42574); format: functional;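 also: Dose-response selectivity test against caspase-3 for candidate inhibitors of sentrin-specific proteases (SENPs)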
T4 sequence (P42574 whole entry): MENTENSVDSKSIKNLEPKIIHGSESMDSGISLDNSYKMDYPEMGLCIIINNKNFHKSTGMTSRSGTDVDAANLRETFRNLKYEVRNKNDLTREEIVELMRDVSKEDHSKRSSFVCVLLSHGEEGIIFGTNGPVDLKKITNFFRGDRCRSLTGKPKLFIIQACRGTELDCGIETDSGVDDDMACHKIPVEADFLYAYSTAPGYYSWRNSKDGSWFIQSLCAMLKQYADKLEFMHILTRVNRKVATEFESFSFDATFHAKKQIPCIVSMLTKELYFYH

[7] = target: T5, Sentrin-specific protease 8 (Homo sapiens, UniProt Q96LD8); format: functional;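 also: luminescence read-out of SENP8 inhibition, dose-response confirmation following an ultra-high-throughput screen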
T5 sequence (Q96LD8 whole entry): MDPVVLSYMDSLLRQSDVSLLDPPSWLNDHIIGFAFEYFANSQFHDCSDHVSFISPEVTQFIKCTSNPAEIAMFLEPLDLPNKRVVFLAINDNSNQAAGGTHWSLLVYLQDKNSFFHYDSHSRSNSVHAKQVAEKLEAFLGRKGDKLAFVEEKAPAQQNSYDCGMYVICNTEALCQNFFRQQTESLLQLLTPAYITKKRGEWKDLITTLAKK

CHO-K1 = assay: as §1, with “Homogeneous time resolved fluorescence (HTRF)-based” for “Fluorescence-based”, “cell-based” for “cell-based high throughput”, “CHO-K1” for “CHO”; format: functional; details: Cricetulus griseus;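 also: potency for inhibition of ATP-stimulated IP1 production as antagonists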
Orexin receptor type 2 [8] = target: T6, Orexin receptor type 2 (Homo sapiens, UniProt O43614); assay: Counterscreen assay for antagonists of the orexin 1 receptor (OX1R; HCRTR1): Fluorescence-based cell-based dose response assay for antagonists of the orexin 2 receptor (OX2R; HCRTR2), run by assay provider.; format: functional
[9] = target: T3, Orexin/Hypocretin receptor type 1; assay: as §2, with “Homogeneous Time Resolved Fluorescence (HTRF)-based” for “Fluorescence-based”; format: functional
Orexin receptor type 2 [10] = target: T6, Orexin receptor type 2; assay: Counterscreen assay for antagonists of the orexin 1 receptor (OX1R; HCRTR1): Homogeneous Time Resolved Fluorescence (HTRF)-based cell-based dose response assay for antagonists of the orexin 2 receptor (OX2R; HCRTR2), run by assay provider.; format: functional
[11] = target: T7, Sentrin-specific protease 6 (Homo sapiens, UniProt Q9GZR1); format: functional;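 also: Luminescence-based dose-response confirmatory assay of SENP6 inhibition, following up an ultra-high-throughput screen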
T7 sequence (Q9GZR1 whole entry): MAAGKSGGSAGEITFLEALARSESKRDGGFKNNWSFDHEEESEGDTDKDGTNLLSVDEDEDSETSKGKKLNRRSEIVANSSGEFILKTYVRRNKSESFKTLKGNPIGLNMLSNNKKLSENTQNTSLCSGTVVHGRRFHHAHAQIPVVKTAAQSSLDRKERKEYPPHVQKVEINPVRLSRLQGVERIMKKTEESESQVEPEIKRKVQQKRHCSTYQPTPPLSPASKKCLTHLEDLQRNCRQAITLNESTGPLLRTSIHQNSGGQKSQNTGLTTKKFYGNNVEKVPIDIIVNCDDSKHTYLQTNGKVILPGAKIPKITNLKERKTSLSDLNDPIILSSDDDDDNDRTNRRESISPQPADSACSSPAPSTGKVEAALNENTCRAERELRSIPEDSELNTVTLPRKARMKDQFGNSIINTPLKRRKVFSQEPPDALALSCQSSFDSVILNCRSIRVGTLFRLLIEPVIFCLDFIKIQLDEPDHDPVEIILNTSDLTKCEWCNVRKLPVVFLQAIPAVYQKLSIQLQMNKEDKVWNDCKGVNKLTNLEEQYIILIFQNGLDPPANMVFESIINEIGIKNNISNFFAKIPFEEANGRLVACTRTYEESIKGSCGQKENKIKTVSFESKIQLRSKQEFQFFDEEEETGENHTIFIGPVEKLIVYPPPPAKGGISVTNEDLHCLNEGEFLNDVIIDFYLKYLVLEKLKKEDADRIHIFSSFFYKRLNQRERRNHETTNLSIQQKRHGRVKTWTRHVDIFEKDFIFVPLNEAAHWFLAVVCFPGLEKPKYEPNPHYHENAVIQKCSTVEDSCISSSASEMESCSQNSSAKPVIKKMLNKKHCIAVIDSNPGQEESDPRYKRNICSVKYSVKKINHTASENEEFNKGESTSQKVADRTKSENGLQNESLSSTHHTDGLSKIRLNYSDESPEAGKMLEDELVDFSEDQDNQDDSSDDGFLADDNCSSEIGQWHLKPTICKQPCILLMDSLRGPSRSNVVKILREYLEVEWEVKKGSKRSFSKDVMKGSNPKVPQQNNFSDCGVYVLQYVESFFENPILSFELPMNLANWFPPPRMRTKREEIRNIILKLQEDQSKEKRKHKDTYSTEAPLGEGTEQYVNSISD

[12] = THP-1 cell cytotoxicity, dose response, cytotoxicity control, set 3 (AID 504852); format: functional; details: Mycobacterium tuberculosis

T6 sequence (O43614 whole entry): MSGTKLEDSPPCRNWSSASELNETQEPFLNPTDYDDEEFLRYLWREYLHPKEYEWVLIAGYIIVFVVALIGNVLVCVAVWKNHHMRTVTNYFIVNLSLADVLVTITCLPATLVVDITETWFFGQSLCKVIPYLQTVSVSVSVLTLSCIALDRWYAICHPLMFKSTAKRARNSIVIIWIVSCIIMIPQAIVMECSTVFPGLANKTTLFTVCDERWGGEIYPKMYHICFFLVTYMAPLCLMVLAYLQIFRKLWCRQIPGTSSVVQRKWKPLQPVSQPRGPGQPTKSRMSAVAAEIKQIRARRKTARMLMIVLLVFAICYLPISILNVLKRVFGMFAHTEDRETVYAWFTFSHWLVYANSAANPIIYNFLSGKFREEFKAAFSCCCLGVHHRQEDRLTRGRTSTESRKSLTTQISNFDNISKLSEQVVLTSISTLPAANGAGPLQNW
T3 sequence (O43613 whole entry): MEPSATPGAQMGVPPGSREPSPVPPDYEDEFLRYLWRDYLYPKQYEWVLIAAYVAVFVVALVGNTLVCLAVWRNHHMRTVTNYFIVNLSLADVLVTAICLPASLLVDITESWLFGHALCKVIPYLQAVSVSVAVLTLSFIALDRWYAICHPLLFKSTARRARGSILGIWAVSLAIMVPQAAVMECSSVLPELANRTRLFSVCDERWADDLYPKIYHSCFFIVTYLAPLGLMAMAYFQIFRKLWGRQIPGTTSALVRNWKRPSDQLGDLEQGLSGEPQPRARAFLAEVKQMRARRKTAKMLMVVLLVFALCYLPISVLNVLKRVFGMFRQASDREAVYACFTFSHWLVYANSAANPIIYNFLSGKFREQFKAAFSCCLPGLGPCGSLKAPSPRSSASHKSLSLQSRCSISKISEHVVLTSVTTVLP

Question: With `CN(CC(=O)Nc1ccc(F)c(F)c1F)C(=O)c1cc(-c2ccncc2)nc2ccccc12` as the compound, how does the EC50 [1] read?
Answer: 14.6 µM (active)

Question: What does the source list for `CC(C)NC(=O)Nc1ccc2c(c1)C(=O)N([C@@H](C)CO)C[C@@H](C)[C@H](CN(C)S(=O)(=O)c1ccc(F)cc1)OCCCC[C@H](C)O2`?
Answer: AC50 [2]: 0.71 µM (active); AC50 [3]: 0.765 µM (active)

Question: With `COc1ccc(/C=C/c2n[nH]c(-c3ccccc3O)n2)cc1OC` as the compound, how does the IC50 [4] read?
Answer: > 49.8 µM (inactive)

Question: And the IC50 [5]?
Answer: 4.7 µM (active)

Question: And the IC50 [6]?
Answer: 3.21 µM (active)

Question: What about the IC50 (Caspase-3) of the same compound?
Answer: 58.8 µM (active)

Question: What about the IC50 [7] of the same compound?
Answer: 12.7 µM (active)

Question: What about the IC50 (CHO-K1) of the same compound?
Answer: > 66.2 µM (inactive)

Question: What about the IC50 (Orexin receptor type 2 [8]) of the same compound?
Answer: > 88.8 µM (inactive)

Question: What about the IC50 [9] of the same compound?
Answer: 2.51 µM (active)

Question: And the IC50 (Orexin receptor type 2 [10])?
Answer: > 50 µM (inactive)

Question: What about the IC50 [11] of the same compound?
Answer: 13.6 µM (active)

Question: For `CCC(Sc1nc2ccccc2c(=O)[nH]1)C(=O)NC1CCCCC1` (centres undefined), which CC50 [12] is on record?
Answer: > 100 µM (active)
